Experimental data as given in US10231979B2, “Modulation of inflammation using progesterone metabolites” (Indiana University Research and Technology Corporation, priority 2015, dated 2019).
Values joined by “and” are separate entries in the source; they are usually repeats but may differ in a detail not shown here. Equal values may be shown once. Read-outs that look alike come from different tables or passages of the source.

How the values were obtained:
[1] = tested on: uterine horns from wild-type (WT) C57BL/6J female mice; assay: Spontaneous uterine contractility, isolated uterine horns in tissue organ bath; settings: for Spontaneous contractile force compared with the vehicle control (in words) / Spontaneous uterine contraction frequency compared to vehicle control (in words) / Contractile Frequency/10 min (% of baseline), Drug / Contractile Force (% of baseline), Drug: maximal treatment dose; for Contractile Frequency/10 min (% of baseline), Drug / Contractile Force (% of baseline), Drug: spontaneous contractility; for Contractile Force (% of baseline), Drug: AUC as % of baseline AUC; for IC50: spontaneous, dose-response 10^-9 to 10^-6 mol/L
Method: (§1) FIGS. 2A & 2B are representative contraction tracings of uterine horns from wild-type (WT) C57BL/6J female mice. FIG. 2A: Uterine horns were isolated and suspended in a tissue organ bath at 0.5 g of tension. Once equilibrated, selected progestin treatments were added in successively increasing concentrations from 10^−9 to 10^−6 mol/L in 20-minute intervals to assess effect on spontaneous contractile activity (progesterone treatment, bottom panel). The contralateral horn from each mouse was treated with a matching ethanol vehicle (top panel). All contraction responses were measured and reported as the area under the contraction curve (AUC), normalized to the AUC of the spontaneous contraction pattern that preceded treatment. FIG. 2B: Treatment effect on oxytocin-induced contractility was assessed by exposing horns to selected progestin treatments (10^−6 mol/L), followed by increasing doses of oxytocin (Oxt) (1, 10, 50, and 100 nmol/L) in 10-minute intervals (bottom panel). The contralateral horn from each mouse was treated with a matching ethanol vehicle (top panel). Contraction responses were measured and reported as described above.
(§2) All progestins were solubilized in ethanol and then diluted in phosphate-buffered saline to the desired molar concentration. […] The concentration of ethanol decreased parallel to the progestin dose in order to minimize the effect of the solvent on uterine contractility.
(§3) Virgin nonpregnant wild-type C57BL/6J female mice (Jackson Labs, Bar Harbor, Me.) were obtained at 10 to 12 weeks of age and fed a standard diet. Mice were euthanized by an IACUC-approved protocol, and each of the 2 uterine horns were removed. A 1 cm×0.5 cm segment of the uterine horn was suspended using 4-0 silk suture between a stainless steel wire hook connected to a Radnoti force displacement transducer (Radnoti LLC, Monrovia, Calif.) and a glass hook inside an organ bath that served as an anchor. The bath was filled with modified Krebs buffer (118 mmol/L NaCl, […], 1.2 mmol/L MgSO4, 1.2 mmol/L KH2PO4, 2.5 mmol/L CaCl2, 25 mmol/L NaHCO3, and 11 mmol/L glucose, pH 7.4), maintained at 37° C., and constantly bubbled with a premixed gas consisting of 20% O2, 5% CO2, and balance N2. Uterine horns were equilibrated at 0.5 g of tension for approximately 30 minutes until a spontaneous contraction pattern was established.
A total of 60 mice were utilized to assess the effect of the selected treatments on uterine contractility, 30 in the spontaneous contraction group and 30 in the oxytocin-induced group. Six mice were in each progestin treatment group during both spontaneous and oxytocin-induced contractility arms of the study. To determine the nongenomic (acute) effect of the progestin treatments on spontaneous uterine contractility, a segment of uterine horn from each mouse was exposed to a single progestin (progesterone, 17-OHPC, 2α-OHP, 6β-OHP, or 16αOHP), while a segment of the contralateral horn was exposed to a matching dose of ethanol vehicle. After a spontaneous contraction pattern was achieved, the progestin treatment was added to the tissue organ bath in successively increasing concentrations from 10^−9 to 10^−6 mol/L in 20-minute intervals. At the end of the treatments, the tissue was washed in modified Krebs buffer and then exposed to KCl (60 mmol/L) to elicit a tetanic response and confirm tissue viability.
Uterine contraction responses were recorded using LabChart Pro (ADInstruments, Colorado Springs, Colo.) software as the force generated with time (g×min). Baseline uterine contractility was calculated as the area under the curve (AUC) for a 10-minute period of spontaneous contractions. The AUC of the uterine contractile response to each treatment (progestin or oxytocin) was determined and expressed as a percentage of the baseline AUC observed during spontaneous contraction. […]

[2] = tested on: uterine horns from wild-type (WT) C57BL/6J female mice; assay: Oxytocin-induced uterine contractility after progestin pretreatment, isolated uterine horns in tissue organ bath; settings: for Oxytocin-induced contractile force compared to vehicle control (in words) / Oxytocin-induced contraction frequency compared to control (in words) / Contractile Force (% of baseline), Drug / Contractile Frequency/10 min (% of baseline), Drug: maximal oxytocin dose (100 nmol/L); for EC50: oxytocin-induced dose-response (1-100 nmol/L oxytocin) after progestin pretreatment 10^-6 mol/L; for Contractile Force (% of baseline), Drug / Contractile Frequency/10 min (% of baseline), Drug: oxytocin-induced, progestin pretreatment 10^-6 mol/L
Method: as §1, §2, §3
To determine the nongenomic effect of progestin treatments on oxytocin-induced uterine contractility, the uterine horns were pretreated with a single progestin at 10^−6 mol/L for 10 minutes after a spontaneous contractile pattern was established. The contralateral horn from the same mouse was treated with ethanol vehicle at a matching concentration. The uterine horns were subsequently exposed to increasing concentrations of oxytocin (1, 10, 50, and 100 nmol/L) in 10-minute intervals. At the end of the oxytocin treatments, the tissue was washed and then exposed to KCl (60 mmol/L) to elicit a tetanic response and confirm tissue viability.
Uterine contraction responses were recorded using LabChart Pro (ADInstruments, Colorado Springs, Colo.) software as the force generated with time (g×min). Baseline uterine contractility was calculated as the area under the curve (AUC) for a 10-minute period of spontaneous contractions. The AUC of the uterine contractile response to each treatment (progestin or oxytocin) was determined and expressed as a percentage of the baseline AUC observed during spontaneous contraction. […] To account for repeated measurements for individual muscle strips at increasing treatment doses, a repeated measures 2-way analysis of variance model was used to compare the dose-response curves. Each dose-response curve was fit by nonlinear regression and compared using an extra sum of squares F test. The mean max-fit response was compared between each progestin and vehicle control to determine maximum treatment efficacy. […]

[3] = tested on: primary uterine smooth muscle cells (UtSMC); assay: IL-6 production in UtSMC stimulated with LPS; assay type: cell-based; settings: for IL-6 / IL-6, % of positive control: UtSMC pre-treated, then LPS; for IL-6: LPS positive control 121.7 pg/mL; for IL-6, % of positive control: relative to DMSO+LPS positive control
Method: In this Example, the effect of progesterone metabolites 16αOHP and 6β-OHP on inflammation in primary uterine smooth muscle cells (UtSMC) was analyzed.
UtSMC were cultured in the presence of DMSO and one of the following: (1) progesterone; (2) […]; (3) 6β-OHP; and (4) 16αOHP. Lipopolysaccharide (LPS) was then added to the culture to stimulate an immune inflammatory reaction. Experiments were performed in triplicate.

[4] = tested on: primary uterine smooth muscle cells (UtSMC); assay: IL-6 production in UtSMC stimulated with TNF-α; assay type: cell-based
Text: FIGS. 5A & 5B are graphs depicting the effect of progesterone metabolites 16αOHP and 6β-OHP on inflammation in primary uterine smooth muscle cells (UtSMC).

THP-1 monocyte cells = assay: Flow cytometry of monocyte-derived macrophage population (PMA differentiation); assay type: cell-based; settings: THP-1 pre-treated 24 hours, then PMA
Method: FIGS. 6A-6C depict flow cytometry of a monocyte-derived macrophage population pre-treated with progesterone metabolites. THP-1 monocyte cells were pre-treated with progesterone metabolites 16αOHP and 6β-OHP for 24 hours, then stimulated to differentiate to macrophages by exposure to PMA.
THP-1 monocyte cells were pre-treated with progesterone metabolites 16αOHP and 6β-OHP for 24 hours, then stimulated to differentiate to macrophages by exposure to phorbol 12-myristate 13-acetate (PMA).

THP-1 monocytes = assay: IL-6 production in THP-1 monocytes stimulated with LPS; assay type: cell-based; settings: THP-1 monocytes pretreated, then LPS; versus positive control
Method: FIG. 9 is a graph depicting the effect of progesterone and progesterone metabolites (16αOHP and 6β-OHP) on inflammation in THP-1 monocytes stimulated with LPS.
In this Example, the effect of progesterone and progesterone metabolites (16αOHP and 6β-OHP) on inflammation in THP-1 monocytes stimulated with LPS was analyzed.

[5] = tested on: monocyte-derived macrophage populations; assay: Macrophage cell surface marker expression of monocyte-derived macrophages; assay type: cell-based; settings: relative to DMSO treated control
Text: FIG. 7 is a graph depicting characterization of monocyte-derived macrophage populations after pre-treatment with progesterone and progesterone metabolites. Expression of macrophage cell surface markers is illustrated relative to DMSO treated control.
In this Example, monocyte-derived macrophage populations after pre-treatment with progesterone and progesterone metabolites were characterized.
Expression of macrophage cell surface markers is illustrated relative to DMSO treated control (see FIG. 7).

NF-κB pathway = NF-κB pathway activation in THP-1 monocytes stimulated with LPS (imaging flow cytometry); assay type: cell-based; settings: THP-1 monocytes pre-treated, then LPS
Method: FIGS. 8A-8B depicts the summary of NF-κB pathway activation in THP-1 monocytes stimulated with LPS after pre-treatment with progesterone and progesterone metabolites. […] In this Example, the effect of progesterone metabolites on the LPS-induced inflammatory response in monocytes was analyzed. Particularly, NF-κB pathway activation in THP-1 monocytes stimulated with LPS after pre-treatment with progesterone and progesterone metabolites was analyzed.

[6] = read-out: Contractile Force IC50
[7] = read-out: Contractile Frequency IC50
[8] = read-out: Contractile Force EC50
[9] = read-out: Contractile Frequency EC50
[10] = Mus musculus, read-out: Contractile Force IC50
[11] = Mus musculus, read-out: Contractile Frequency IC50
[12] = Mus musculus, read-out: Contractile Force EC50
[13] = Mus musculus, read-out: Contractile Frequency EC50

IC50 [1, 6] [nM] | IC50 [1, 7] [nM] | EC50 [2, 8] [nM] | EC50 [2, 9] [nM] | IC50 [1, 10] [nM] | IC50 [1, 11] [nM] | EC50 [2, 12] [nM] | EC50 [2, 13] [nM] | Compound | Spontaneous contractile force compared with the vehicle control (in words) [1] | Spontaneous uterine contraction frequency compared to vehicle control (in words) [1] | Contractile Frequency/10 min (% of baseline), Drug [1] | Contractile Force (% of baseline), Drug [1] | Oxytocin-induced contractile force compared to vehicle control (in words) [2] | Oxytocin-induced contraction frequency compared to control (in words) [2] | Contractile Force (% of baseline), Drug [2] | Contractile Frequency/10 min (% of baseline), Drug [2] | IL-6 [3] [pg/mL] | IL-6, % of positive control [3] [%] | other results
0.32 | 0.55 | 68.2 | 646 | – | – | – | – | CC(=O)[C@H]1CC[C@H]2[C@@H]3CCC4=CC(=O)[C@H](O)C[C@]4(C)[C@H]3CC[C@]12C [2α-OHP, 4-pregnen-2α-ol-3,20-dione] | No significant difference | not significantly decreased | 53.7% of baseline | 37.9% of baseline | no differences | not | 329.5% of baseline | 168.9% of baseline | – | – | –
0.77 | 0.74 | 142 | 8.46 | – | – | – | – | CC(=O)[C@H]1[C@H](O)C[C@H]2[C@@H]3CCC4=CC(=O)CC[C@]4(C)[C@H]3CC[C@@]21C [16α-OHP, 4-pregnen-16α-ol-3,20-dione] | No significant difference | not significantly decreased | 57% of baseline | 37.2% of baseline | no differences | decreased significantly | 301.6% of baseline | 216.9% of baseline | 98.7 | 83 | Effect on oxytocin-induced uterine contractility (in words) [2]: decreased; Contractile Frequency/10 min (% of baseline), Drug ([2]; listed as 16αOHP): 217 % of baseline; IL-6 production (in words) ([3]; UtSMC stimulated with LPS): reduced IL-6 production; IL-6 production (in words) [4]: decreased IL-6 production; Macrophage population/phenotype compared to DMSO treated control (in words) (THP-1 monocyte cells): decrease in the macrophage population/phenotype; Inflammatory response (IL-6 production) (in words) (THP-1 monocytes): significantly decreased IL-6 production
– | – | – | – | 0.78 | 0.31 | 8.43 | 3.26 | CCCCCC(=O)O[C@]1(C(C)=O)CC[C@H]2[C@@H]3CCC4=CC(=O)CC[C@]4(C)[C@H]3CC[C@@]21C [17-OHPC, 4-pregnen-17-ol-3,20-dione caproate, reference compound] | No significant difference | not significantly decreased | 57.9% of baseline | 50.4% of baseline | – | decreased significantly | 218.4 % of baseline | 130 % of baseline and 130.2% of baseline | – | – | –
– | – | – | – | – | – | – | – | C[C@]12CC[C@@H]3c4ccc(O)cc4CC[C@H]3[C@@H]1CC[C@@H]2O [E2, reference compound] | – | – | – | – | – | – | – | – | 126 | 103 | –
– | – | – | – | 0.31 | 6.58 | 9.76 | 11.3 | CC(=O)[C@H]1CC[C@H]2[C@@H]3CCC4=CC(=O)CC[C@]4(C)[C@H]3CC[C@]12C [Progesterone] | – | not significantly decreased | 48% of baseline | 43.9% of baseline | – | decreased significantly | 266.8% of baseline | 141% of baseline | 100.3 | 83 | Contractile Force (% of baseline), Drug ([1]; listed as progesterone): 43.9 % of baseline; Contractile Force (% of baseline), Drug ([2]; listed as progesterone): 266.8 % of baseline; Contractile Frequency/10 min (% of baseline), Drug ([2]; listed as progesterone): 141 % of baseline; Expression of cell surface markers involved in immune response (CD14, TLR4, and HLA-DR) (in words) [5]: decreased expression; Median similarity score (NF-κB migration into the nucleus) (in words) (NF-κB pathway): did not affect the median similarity score
